Measurements published in patent US20190030005A1, “THERAPEUTIC AGENT FOR DYSLIPIDEMIA” (KOWA COMPANY, LTD., priority 2013, published 2019).

Assays:
TG = assay: Effects of combination use of Compound A and EPA on TG levels in rats; assay type: in vivo, Wister rats; conditions: for Effect on TG level, in words: Compound A 0.1 mg/kg and/or EPA 200 mg/kg, single or combination administration, Dunnett's test vs control; for TG Relative value (vs Control): oral once a day, Wister rats
Procedure: (§1) Wister rats (7-week old, male, Charles River Laboratories Japan Inc.) were used for the experiments. Under ad libitum feeding, the blood samples were obtained from the cervical vein, and the rats were divided into four groups (N=8) based on the plasma TG levels, plasma TC levels and the body weights. From the next day, a solvent (a 0.5% aqueous solution of methyl cellulose: […] In the afternoon of the final administration day, the blood samples were obtained under a condition of 4 hours fasting under anesthesia with pentobarbital, and the plasma VLDL-C levels were measured according to the method by Usui et al. (Usui S et al., Clin. Chem. 46, 63-72, 2000.) by high-speed liquid chromatography. Further, the TG levels were measured by an automatic analyzer, by using a measuring reagent, Qualigent TG (Sekisui Medical Co., Ltd.). The synergistic effect was determined by using Bürgi's formula (when a relative level in a group of combined use is smaller than a value of a product of a relative level of single agent A and a relative level of single agent B, then there is a synergistic effect). Group 2: 0.1 mg/kg of Compound A Group 3: 200 mg/kg of EPA Group 4: 0.1 mg/kg of Compound A and 200 mg/kg of EPA The results are shown as the mean value±standard deviation. Comparison between the control group and the drug-administration group was performed using a Dunnett's multiple comparison test, and a risk rate of less than 5% was determined to have a significant difference.

LDL-C = assay: Effects of combination use of Compound A and EPA on plasma LDL-C level in Wister rats; assay type: in vivo; conditions: for LDL-C Relative value (vs. Control): oral once a day, Wister rats, plasma; for Effect on LDL-C level, in words: single administration of Compound A (0.1 mg/kg) or EPA, Dunnett's test vs control
Procedure: as §1, with “divided into six groups (N=8)” for “divided into four groups (N=8)”, “the plasma LDL-C levels were” for “the plasma VLDL-C levels were”, “liquid chromatography. The synergistic” for “liquid chromatography. Further, the TG levels were measured by an automatic analyzer, by using a measuring reagent, Qualigent TG (Sekisui Medical Co., Ltd.). The synergistic”, “of EPA Group 5: 3,000 mg/kg of EPA Group 6: 0.1 mg/kg of Compound A and 3,000 mg/kg of EPA The results” for “of EPA The results”, “group and drug-administration group” for “group and the drug-administration group”, “was performed by using a” for “was performed using a”

VLDL-C = assay: Effects of combination use of Compound A and EPA on plasma VLDL-C levels in rats; assay type: in vivo, Wister rats; conditions: for Effect on VLDL-C level, in words: Compound A 0.1 mg/kg and/or EPA 200 mg/kg, single or combination administration, Dunnett's test vs control; for VLDL-C Relative value (vs Control): oral once a day, Wister rats, plasma
Procedure: as §1

Row | Structure (SMILES) | Effect on TG level, in words (TG) | TG Relative value (vs Control) (TG; EPA 200 mg/kg alone) | LDL-C Relative value (vs. Control) (LDL-C; EPA 200 mg/kg alone) | LDL-C Relative value (vs. Control) (LDL-C; EPA 3000 mg/kg alone) | Effect on LDL-C level, in words (LDL-C) | Effect on VLDL-C level, in words (VLDL-C) | VLDL-C Relative value (vs Control) (VLDL-C; EPA 200 mg/kg alone) | TG Relative value (vs Control) (TG; Compound A 0.1 mg/kg alone) | LDL-C Relative value (vs. Control) (LDL-C; Compound A 0.1 mg/kg alone) | VLDL-C Relative value (vs Control) (VLDL-C; Compound A 0.1 mg/kg alone)
1 | CC/C=C\C/C=C\C/C=C\C/C=C\C/C=C\CCCC(=O)O [EPA, All-cis-5,8,11,14,17-eicosapentaenoic acid] | any obvious effect on TG level was not observed | 1.10 | 0.84 | 0.85 | mild decreasing action on LDL-C level was observed | any obvious effect on VLDL-C level was not observed | 0.92 |  |  | 
2 | CC[C@@H](Oc1cccc(CN(CCCOc2ccc(OC)cc2)c2nc3ccccc3o2)c1)C(=O)O [Compound A, (R)-2-[3-[[N-(benzoxazol-2-yl)-N-3-(4-methoxyphenoxy)propyl]aminomethyl]phenoxy]butyric acid] | a tendency of decreasing the level of TG was observed |  |  |  | an obvious effect on LDL-C level was not observed | a tendency of decreasing the level of VLDL-C was observed |  | 0.82 | 1.02 | 0.68
